According to patent US5854244A, “Melamine derivatives for use in the treatment of cancer” (priority 1992, dated 1998):
Like-named read-outs stand apart in the source and are kept apart here.

Tests used:
[1] = Dimer/polymer formation in solution (overnight standing); assay type: physicochemical; settings: aqueous solution, 4-5 mg/ml, overnight (14-16 hours), room temperature
Description: (ii) Dimer/polymer Formation in Solution
An aqueous solution of CB7646 and trimelamol in 4ml aliquots at a concentration of 4-5 mg/ml was left to stand overnight (14-16 hours) at room temperature.

[2] = test system: PC6 murine plasmacytoma; assay: MTT cytotoxicity assay, PC6; assay type: cell-based; settings: Mus musculus, continual drug exposure, parenthesis = standard deviation or ± values
Description: (§1) The cytotoxicity of CB7646 and CB7683 was compared with trimelamol against mammalian tumour cell lines using the MTT assay. This assay is based upon the selective ability of living but not dead cells to reduce the tetrazolium salt MTT (3-[4,5-dimethylthiazol-2-yl]-25-diphenyl tetrazolium bromide) to purple formazan (Mosmann et al, 1983, J. Immun. Methods 65; 55-63; Carmichael et al (1987) Cancer Res. 47; 936-942). Cell lines were grown in culture with continual drug exposure. The IC50 values (in μm) of the compounds (i.e. concentration giving 50% inhibition of cell growth as compared with untreated control) were determined, and are shown in Table 2. Figures in parenthesis refer to standard deviation or ± values for 2 or more measurements.
PC6 murine plasmacytoma

[3] = test system: Walker 256 rat mammary carcinoma; assay: MTT cytotoxicity assay, Walker 256; assay type: cell-based
Description: (§2) The cytotoxicity of CB7646 and CB7683 was compared with trimelamol against mammalian tumour cell lines using the MTT assay. […] Cell lines were grown in culture with continual drug exposure. […] Figures in parenthesis refer to standard deviation or ± values for 2 or more measurements.

[4] = test system: H69 human small cell lung cancer; assay: MTT cytotoxicity assay, H69; assay type: cell-based
Description: as §2

[5] = test system: CH1 human epithelial ovarian cancer; assay: MTT cytotoxicity assay, CH1; assay type: cell-based; settings: continual drug exposure, parenthesis = standard deviation or ± values
Description: as §1
CH1, 41M human epithelial ovarian cancer

[6] = test system: ADJ/PC6 tumour; assay: Antitumour activity towards the ADJ/PC6 tumour in mice; assay type: in vivo; settings: for % Inhibition (Tumour wt as % of Control Value): 5 consecutive days, day 30; for T.I.: Example 7 (repeat of Example 6); for ED90: Mus musculus
Description: (§3) The anti-tumour activity of CB 7646 prepared in accordance with Example 1 against ADJ/PC6 tumour in mice were compared with that of trimelamol. An implant of 1 mm^3 of tumour was made on day 1. On day 20, animals bearing tumours of comparative size were placed into groups of 4 and treated with drug on 5 consecutive days, and then left until day 30. Tumours from the treated and controls were dissected and weighed as a measure of tumour growth. Compounds were given in 5% DMSO/dextrose.
(§4) Example 6 was repeated to obtain more precise LD50 values.

[7] = Lethality (LD50) in mice; settings: mouse, in vivo
Description: as §3, §4

[8] = test system: PXN65 Xenografts; assay: In vivo activity against PXN65 ovarian cancer xenografts; parameters: species or system mice; settings: for time to tumour regression: treated mice
Description: CB7646 was tested in vivo against ovarian cancer xenografts of the PXN65 cell line transplanted into mice, substantially in accordance with Harrap et al, Annals of Oncology, 1990, 1;65-76. PXN65 is a cisplatin-sensitive line.

[9] = Stability in solution (half-life by HPLC)
Description: Compounds were dissolved in DMSO to a concentration of 50 mM. Aliquots were then dispersed into the appropriate medium to give a final concentration of 100 μM in a volume of about 10 ml. […] (to simulate room temperature) or at 37° C. in water, 0.9% NaCl or 5% dextrose. Aliquots were removed from each preparation at intervals to assess their stability (i.e. half-life, T^1/2) which was measured using HPLC analysis. This entailed an isocratic elution using a mobile phase comprising 10% acetonitrile, 90% 0.05M ammonium bicarbonate. The 15 cm column was packed with C8 octyl Spherisorb material. The column was encased in a cooling cabinet which was maintained at 14°-17° C. Standards of freshly prepared solutions were run throughout the analysis period by way of controls.
T^1/2 measurements were read from a semi-logarithmic plot of peak area (y) versus time (x).

[10] = Judson et al 1989, 1991; cited from earlier work
[11] = test system: ovarian carcinomas; settings: cited from earlier work
[12] = WALKER 256, MTT, continual drug exposure, parenthesis = standard deviation or ± values, read-out: IC50
[13] = MTT, continual drug exposure, parenthesis = standard deviation or ± values, read-out: IC50
[14] = ADJ/PC6, Example 7 (repeat of Example 6)
[15] = Example 7 (repeat of Example 6)

Row | SMILES | Dimer/polymer formation (precipitate) [1] | IC50 [2] [µM] | IC50 [3, 12] [µM] | IC50 [4, 13] [µM] | IC50 [5] [µM] | % Inhibition (Tumour wt as % of Control Value) ([6]; 3.25 mg/kg) [%] | % Inhibition (Tumour wt as % of Control Value) ([6]; 6.25 mg/kg) [%] | % Inhibition (Tumour wt as % of Control Value) ([6]; 12.5 mg/kg) [%] | % Inhibition (Tumour wt as % of Control Value) ([6]; 25 mg/kg) [%] | % Inhibition (Tumour wt as % of Control Value) ([6]; 50 mg/kg) [%] | % Inhibition (Tumour wt as % of Control Value) ([6]; 100 mg/kg) [%] | T.I. [6] | ED90 [6, 14] [mg/kg] | LD50 [7, 15] [mg/kg] | Deaths ([8]; 15 mg/kg, 20 doses) | GD (Growth delay) ([8]; 15 mg/kg, 20 doses) [days] | time to tumour regression ([8]; PXN65 xenografts) [days] | also measured
1 | CNc1nc(N(C)CO)nc(N(C)CO)n1 [CB7646, 2,4-Bis[(hydroxymethyl) (methyl)amino]6-methylamino-1,3,5-triazine] | did not form a precipitate | 25.1 | 10.7 | 14.7 | 35.8 | 5.6 | -1.0 | 13.7 | 5.6 | 76.8 | 98.0 | 4.6 | 31 | 142 | 0 | > 140 | ≤ 28 | IC50 ([3]; Walker 256, CB7646 prepared by recrystallisation method of Example 2, read-out: IC50 (repeat, recrystallised preparation)): 10.5 µM; IC50 ([4]; CB7646 prepared by recrystallisation method of Example 2, read-out: IC50 (repeat, recrystallised preparation)): 16.5 µM; Therapeutic Index (TI) ([6]; ADJ/PC6 tumour, Example 6): > 1.4; ED90 ([6]; ADJ/PC6, ADJ/PC6 tumour, Example 6): 74 mg/kg; LD50 ([7]; Example 6): > 100 mg/kg; efficacy (summary) ([8]; PXN65 xenografts, relative to trimelamol): comparable efficacy to trimelamol; half-life at 100 µM ([9]; 0.9% nacl, pH 5, T^1/2, 0.9% NaCl, pH 5.0, r.t.): 960 min; half-life at 100 µM ([9]; 5% dextrose, pH 4, T^1/2, 5% Dextrose, pH 4.0, r.t.): 1320 min; half-life at 100 µM ([9]; deionised water, pH 7.5, T^1/2, Deionised water, pH 7.5, r.t.): 1080 min; half-life at 100 µM ([9]; deionised water, pH 7.5, T^1/2, deionised water, pH 7.5, 37 °C): 180 min; stability (summary of Table 1) ([9]; relative to trimelamol): superior stability
2 | OCN(CC(F)(F)F)c1nc(NCC(F)(F)F)nc(N(CO)CC(F)(F)F)n1 [CB7683, 2,4-Bis[(hydroxymethyl)(2,2,2 trifluoroethyl)amino]-6-(2,2,2-trifluoroethyl)amino-1,3,5-triazine] | – | 31.6 | – | 8.9 | 40.9 | – | – | – | – | – | – | – | – | – | – | – | – | –
3 | CN(CO)c1nc(N(C)CO)nc(N(C)CO)n1 [Trimelamol, 2,4,6-tris{(hydroxymethyl) (methyl)amino}-1,3,5-triazine, reference compound] | formed a heavy precipitate | 12.9 | 9.4 | 8.5 | 23.4 | 0 | 18.2 | 13.7 | 45.5 | 83.9 | 96.0 | 2.9 | 24 | 70 | 0 | > 170 | ≤ 28 | Deaths ([8]; 30 mg/kg, 5 doses): 0; GD (Growth delay) ([8]; 30 mg/kg, 5 doses): > 273 days; polymerisation during Phase I and II clinical trials [10]: proved problematic; half-life of trimelamol activity in humans ([11]; humans, Judson et al 1989): short; clinical activity ([11]; particularly against ovarian carcinomas): clinically active; half-life at 100 µM ([9]; 0.9% nacl, pH 4.9): 273 min; half-life at 100 µM ([9]; 5% dextrose, pH 4): 348 min; half-life at 100 µM ([9]; deionised water, pH 7.5): 120 min
